Data: patent publication US20110178015A1, “METHODS OF TREATMENT USING BIASED LIGANDS FOR RECEPTORS SUCH AS THE PTH RECEPTOR” (priority 2007, published 2011)
Entries after “also recorded” stand apart in the source; their conditions may differ.

Assays:
endogenous PTH1R = target: T1, endogenous PTH1R (Mus musculus, UniProt P41593); assay: Gq/11 PI hydrolysis in POB cultures; format: cell-based, mice; details: data not shown
T1 construct: stimulation of endogenous PTH1R in primary murine osteoblasts (POB); endogenous in cells; host or cells: primary osteoblasts (POB) from WT and β-arrestin 2−/− C57BL/6 mice
T1 sequence (P41593 27-591): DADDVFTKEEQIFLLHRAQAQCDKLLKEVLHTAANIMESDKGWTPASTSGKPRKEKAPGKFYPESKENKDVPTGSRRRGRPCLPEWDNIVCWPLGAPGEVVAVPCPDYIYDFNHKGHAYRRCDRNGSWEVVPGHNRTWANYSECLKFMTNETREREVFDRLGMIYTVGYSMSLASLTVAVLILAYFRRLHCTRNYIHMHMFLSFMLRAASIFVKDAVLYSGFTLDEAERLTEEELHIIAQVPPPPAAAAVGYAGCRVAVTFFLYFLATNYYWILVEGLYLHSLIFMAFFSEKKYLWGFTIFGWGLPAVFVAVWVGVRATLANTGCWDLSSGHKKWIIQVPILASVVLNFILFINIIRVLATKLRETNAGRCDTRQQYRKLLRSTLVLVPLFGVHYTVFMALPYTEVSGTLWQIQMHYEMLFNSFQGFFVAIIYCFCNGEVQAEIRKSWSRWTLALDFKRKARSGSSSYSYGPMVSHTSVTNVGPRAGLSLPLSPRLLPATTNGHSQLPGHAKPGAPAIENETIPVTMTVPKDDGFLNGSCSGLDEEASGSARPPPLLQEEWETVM

[1] = tested on: WT and β-arrestin 2−/− mice; assay: Quantitative microCT of the lumbar spine (trabecular bone); format: in vivo; details: for percent increase in Tb bone density: vs vehicle, 8 weeks
From the text: FIG. 4. β-arrestin 2 dependent signaling contributes to increases in trabecular bone but not cortical bone. Quantitative microCT of the lumbar spine was used to determine the effect vehicle, PTH (1-34) (PTH), or PTH-barr on (a) trabecular bone (Tb) density (BV/TV), (b) Tb thickness and (c) Tb number in WT and β-arrestin 2−/− mice after 8 wks of treatment. PTH and PTH-βarr increased tb density, tb thickness, and tb number in WT treated animals. The effects of PTH-βarr were absent in the β-arrestin −/− animals consistant with a b-arrestin mediated mechanism of anabolic bone formation. Data represent the mean±SEM of at least 7 independent mouse measurements. (***, P<0.001; **, P<0.01; *, P<0.05 compared with vehicle treated WT mice; if, P<0.01; t, P<0.05 compared with vehicle treated β-arrestin 2−/− mice).
Quantitative microCT (qCT) measurements of the lumbar spine were acquired from WT and β-arrestin 2−/− mice after 8 weeks of treatment with vehicle, PTH(1-34), or PTH-βarr. There was no significant difference in the overall trabecular bone density (BV/TV) between vehicle treated WT and β-arrestin 2−/− mice (FIG. 3A). […] These differences in trabecular bone architecture in sham treated animals reflect two potential contributing processes 1) the loss of β-arrestin mediated signaling and 2) the exaggeration of Gs signaling due to the loss of β-arrestin desensitization.

[2] = tested on: WT and β-arrestin 2−/− mice; assay: qCT of the midfemoral shaft (cortical bone); format: in vivo; details: for femoral periosteal circumference / midshaft cortical thickness: WT mice; for femoral periosteal circumference / midshaft cortical thickness / cortical thickness / periosteal circumference: 8 wks; for endosteal bone surfaces: WT or β-arrestin−/− mice, data not shown; for cortical thickness / periosteal circumference: β-arrestin 2−/− mice
From the text: Finally, the effects of PTH(1-34) and PTH-βarr on cortical bone were examined by qCT of the midfemoral shaft (FIGS. 3D and E). […] However the β-arrestin 2−/− mice had greater midshaft cortical thickness than vehicle treated WT mice. […] The biased agonist, PTH-βarr had no effect on these cortical indices in WT mice.

[3] = tested on: WT and β-arrestin 2−/− mice; assay: 24 hour urine deoxypyridinoline (DPD), marker of bone resorption; format: in vivo; details: 4 weeks of treatment
Method: FIG. 5. PTH-βarr increases serum osteocalcin and has no effect on urine Deoxypyridinoline (DPD) excretion. (a) Serum osteocalcin, a biochemical marker of bone formation was measured in WT and β-arrestin 2−/− mice after 4 weeks of treatment with vehicle, PTH (1-34) (PTH) or PTH-βarr. […] There was no increase in serum osteocalcin in the arrestin 2−/− mice treated with PTH-βarr compared to placebo. […] (b) 24 hour urine DPD, a marker of bone degradation and bone resorption, was also measured in WT and β-arrestin 2−/− mice after 4 weeks of treatment with vehicle, PTH or PTH-βarr. […] Data represent the mean±SEM of at least 7 independent mouse measurements. (***, P<0.001; *, P<0.05; compared with vehicle treated WT mice; †††, P<0.001; ††, P<0.01 compared with vehicle treated β-arrestin 2−/− mice).
265. 24 hour urine deoxypyridinoline (DPD), a marker of bone degradation and bone resorption, was also measured. […] The increase in urine DPD excretion in the PTH(1-34) treated β-arrestin 2−/− mice compared to WT further supports the hypothesis that osteoblast-osteoclast coupling is meditated primarily through G protein dependent mechanisms that are disinhibited in the absence of β-arrestin 2.

[4] = tested on: osteocalcin, RANKL and OPG gene expression; assay: Calvarial gene expression of bone regulatory proteins by quantitative RT-PCR; format: in vivo, mice
Method: FIG. 6 Distinct β-arrestin- and G protein-dependent Pathways Contribute to PTH Receptor-stimulated Gene Expression of Bone Regulatory Proteins. To determine the contributions of β-arrestin mediated signaling, to PTH receptor stimulated transcription of bone regulatory proteins, RNA was isolated from the calvaria of WT and β-arrestin 2−/− mice treated with vehicle, PTH(1-34) (PTH), or PTH-βarr. Gene expression was analyzed by quantitative RT-PCR. (a) Consistent with bone formation PTH and PTH-βarr increased osteocalcin expression in WT calvaria. […] (b) and (c). […] Data represent the mean±SEM from six independent experiments. (***, P<0.001; **, P<0.01; *, P<0.05; compared with vehicle treated WT mice; †††, P<0.001; †, P<0.05 compared with vehicle treated β-arrestin 2−/− mice).
To determine the contribution of β-arrestin mediated signaling to PTH1R-stimulated transcription of bone regulatory proteins, calvarial RNA was isolated from WT and β-arrestin 2−/− mice treated with PTH(1-34), PTH-βarr or vehicle. Gene expression for osteocalcin, as well as receptor activator of nuclear factor-KB ligand (RANKL) and osteoprotegrin (OPG), which activate and inhibit osteoclastic bone resorption respectively, was analyzed by quantitative RTPCR (FIG. 6 A-C).

[5] = WT mice, 8 weeks of daily treatment
[6] = β-arrestin 2−/− mice, 8 weeks of daily treatment
[7] = WT mice, 8 weeks of daily treatment, listed as PTH

Row | Substance | Gq/11 PI hydrolysis (endogenous PTH1R) | lumbar spine trabecular bone density (BV/TV) vs vehicle [1, 5] | trabecular number vs vehicle [1, 5] | trabecular thickness vs vehicle [1, 5] | femoral periosteal circumference [2] | midshaft cortical thickness [2] | endosteal bone surfaces [2] | cortical thickness [2] | periosteal circumference [2] | 24 hour urine DPD vs vehicle ([3]; WT mice) | 24 hour urine DPD vs vehicle ([3]; β-arrestin 2−/− mice) | OPG mRNA expression vs vehicle ([4]; WT mice, calvaria) | RANKL mRNA expression vs vehicle ([4]; WT mice, calvaria) | osteocalcin mRNA expression vs vehicle ([4]; WT mice, calvaria) | OPG mRNA expression vs vehicle ([4]; β-arrestin 2−/− mice, calvaria) | RANKL mRNA expression vs vehicle ([4]; β-arrestin 2−/− mice, calvaria) | also measured
1 | (D-Trp12, Tyr34)-PTH(7-34) [PTH-βarr] | did not activate | increased; also recorded: significant increase | increased; also recorded: significant increases | increased; also recorded: significant increases | no effect | no effect | no significant effects | significantly decreased | significantly decreased | no significant effect | no significant effect | did not affect | did not affect | increases | Neither PTH nor PTH-βarr treatment had a significant effect | Neither PTH nor PTH-βarr treatment had a significant effect | trabecular number vs vehicle [1, 6]: absent; OPG mRNA expression vs vehicle ([4]; WT mice; calvaria; Tyr34)-PTH(7-34)): significantly increases; osteocalcin mRNA expression vs vehicle ([4]; β-arrestin 2−/− mice, calvaria): decrease
2 | PTH(1-34) [reference compound] | did not activate | significantly increased | significant increases | significant increases | increased | increased | no significant effects | no significant effect | no significant effect | significantly increased | significantly increased | increases | increases | increases | Neither PTH nor PTH-βarr treatment had a significant effect | Neither PTH nor PTH-βarr treatment had a significant effect | lumbar spine trabecular bone density (BV/TV) vs vehicle [1, 7]: increased; trabecular number vs vehicle [1, 7]: increased; trabecular thickness vs vehicle [1, 7]: increased; percent increase in Tb bone density ([1]; WT mice): 38%; trabecular bone density (BV/TV) vs vehicle [1, 6]: net increase; trabecular thickness vs vehicle [1, 6]: significant increases; percent increase in Tb bone density ([1]; β-arrestin 2−/− mice): 17%; 24 hour urine DPD vs vehicle ([3]; β-arrestin 2−/− mice, listed as PTH): increase; osteocalcin mRNA expression vs vehicle ([4]; WT mice, calvaria, listed as PTH): increased; osteocalcin mRNA expression vs vehicle ([4]; β-arrestin 2−/− mice, calvaria, listed as PTH): significant increase; also recorded: significantly increased
